Assay results published in US12257237B2 (priority 2017, dated 2025).
Values joined by “and” are separate entries in the source; they are usually repeats but may differ in a detail not shown here. Equal values may be shown once.

Experiments:
[1] = Drug tolerability (body weight) in DD013 dedifferentiated liposarcoma xenograft model; assay type: in vivo, Athymic nude mice; details: for BWL % / Mouse body weight, Mean: Doxo (8 mg/kg)
Procedure: (§1) Experiments were performed with female Athymic nude mice, 9-10 weeks old obtained from Harlan Laboratories (Udine, Italy). They were maintained under Specific Pathogen Free conditions with constant temperature and humidity, according to the institutional guidelines.
(§2) Tumour growth mice was monitored two/three times a week (depending on tumour growth rate, to avoid unnecessary stress to the animals) by Vernier caliper. Mice were sacrificed when tumour reached a mean weight of 2±0.5 gr. The antitumour activity will be expressed as T/C %, where T and C were the mean tumour weight of treated and control groups, respectively. Mice were monitored daily and weighted at least two times a week. Tolerability was evaluated on the basis of body weight loss (BWL) and clinical observation.

[2] = system: DD013 dedifferentiated liposarcoma; assay: Antitumour activity in DD013 dedifferentiated liposarcoma xenograft model; assay type: in vivo, Athymic nude mice; details: for DD0113 tumour weight, Mean / DD0113 tumour weight, individual mouse: Doxorubicin 8 mg/kg q7dx2
Procedure: as §1, §2
Statistical analysis was performed with GraphPad Prism version 6.01 software (GraphPad software, Inc., La Jolla, CA, USA). ANOVA test was performed to evaluate if there were statistically significant differences between treated and control groups.
Briefly, xenografts were obtained by transplanting 3-4 mm tumour fragments s.c. in the flanks of mice. The growing tumour masses were measured with the aid of a Vernier caliper, and the tumour weights (TW, 1 mm^3=1 mg) were calculated by the formula: length×(width) 2/2. When tumour load achieved about 200-400 mg, mice were randomized into the experimental groups.

COc1cccc2c1C(=O)c1c(O)c3c(c(O)c1C2=O)C[C@@](O)(C(=O)CO)C[C@@H]3O[C@H]1C[C@H](N)[C@H](O)[C@H](C)O1 [Doxo]
BWL % ([1]; day 23 from inoculum): 0.0% | Mouse body weight, Mean ([1]; day 23 from inoculum): 23.7 g | BWL % ([1]; day 26 from inoculum): −2.6% | Mouse body weight, Mean ([1]; day 26 from inoculum): 23.0 g | BWL % ([1]; day 29 from inoculum): −0.3% | Mouse body weight, Mean ([1]; day 29 from inoculum): 23.6 g | BWL % ([1]; day 33 from inoculum): −5.2% | Mouse body weight, Mean ([1]; day 33 from inoculum): 22.4 g | BWL % ([1]; day 36 from inoculum): −1.7% | Mouse body weight, Mean ([1]; day 36 from inoculum): 23.3 g | BWL % ([1]; day 40 from inoculum): 0.7% | Mouse body weight, Mean ([1]; day 40 from inoculum): 23.8 g | BWL % ([1]; day 43 from inoculum): 4.0% | Mouse body weight, Mean ([1]; day 43 from inoculum): 24.6 g | BWL % ([1]; day 47 from inoculum): 8.4% | Mouse body weight, Mean ([1]; day 47 from inoculum): 25.7 g | BWL % ([1]; day 50 from inoculum): 5.1% | Mouse body weight, Mean ([1]; day 50 from inoculum): 24.9 g | BWL % ([1]; day 54 from inoculum): 5.5% | Mouse body weight, Mean ([1]; day 54 from inoculum): 25.0 g | BWL % ([1]; day 58 from inoculum): 5.8% | Mouse body weight, Mean ([1]; day 58 from inoculum): 25.0 g | BWL % ([1]; day 62 from inoculum): 8.9% | Mouse body weight, Mean ([1]; day 62 from inoculum): 25.8 g | BWL % ([1]; day 65 from inoculum): 7.4% | Mouse body weight, Mean ([1]; day 65 from inoculum): 25.4 g | Mouse body weight, Mean ([1]; day 69 from inoculum): 26.6 g | BWL % ([1]; day 72 from inoculum): 10.0% | Mouse body weight, Mean ([1]; day 72 from inoculum): 26.0 g | BWL % ([1]; day 75 from inoculum): 10.3% | Mouse body weight, Mean ([1]; day 75 from inoculum): 26.1 g

COc1cccc2c1C(=O)c1c(O)c3c(c(O)c1C2=O)C[C@@](O)(C(=O)CO)C[C@@H]3O[C@H]1C[C@H](N)[C@H](O)[C@H](C)O1 [Doxorubicin, reference compound]
maximum BWL ([1]; 8 mg/kg, day 33): 5.2% | optimal T/C ([2]; 8 mg/kg i.v. q7dx2): 34.1% | effect on tumour growth ([2]; 8 mg/kg q7dx2): No arrest of tumour growth was observed | DD0113 tumour weight, Mean ([2]; day 23 from inoculum): 199.3 mg | DD0113 tumour weight, individual mouse ([2]; day 23 from inoculum): 302.2 mg and 277.0 mg and 253.6 mg and 228.6 mg and 196.0 mg and 178.0 mg and 147.0 mg and 114.2 mg and 97.6 mg | DD0113 tumour weight, Mean ([2]; day 26 from inoculum): 295.8 mg | DD0113 tumour weight, individual mouse ([2]; day 26 from inoculum): 464.9 mg and 410.3 mg and 365.9 mg and 384.0 mg and 308.8 mg and 283.4 mg and 232.9 mg and 87.4 mg | DD0113 tumour weight, Mean ([2]; day 29 from inoculum): 336.6 mg | DD0113 tumour weight, individual mouse ([2]; day 29 from inoculum): 492.1 mg and 380.4 mg and 478.9 mg and 477.1 mg and 398.0 mg and 313.2 mg and 252.9 mg and 147.9 mg and 89.3 mg | DD0113 tumour weight, Mean ([2]; day 33 from inoculum): 409.1 mg | DD0113 tumour weight, individual mouse ([2]; day 33 from inoculum): 566.5 mg and 526.0 mg and 691.7 mg and 549.0 mg and 444.0 mg and 344.6 mg and 295.0 mg and 150.3 mg | DD0113 tumour weight, Mean ([2]; day 36 from inoculum): 425.8 mg | DD0113 tumour weight, individual mouse ([2]; day 36 from inoculum): 549.6 mg and 572.5 mg and 610.4 mg and 519.4 mg and 503.4 mg and 361.9 mg and 345.6 mg and 240.6 mg | DD0113 tumour weight, Mean ([2]; day 40 from inoculum): 499.7 mg | DD0113 tumour weight, individual mouse ([2]; day 40 from inoculum): 578.4 mg and 652.6 mg and 762.1 mg and 750.9 mg and 531.1 mg and 424.1 mg and 401.6 mg and 244.9 mg and 151.8 mg | DD0113 tumour weight, Mean ([2]; day 43 from inoculum): 543.1 mg | DD0113 tumour weight, individual mouse ([2]; day 43 from inoculum): 529.7 mg and 810.5 mg and 868.0 mg and 780.2 mg and 575.9 mg and 420.0 mg and 428.4 mg and 263.0 mg and 212.3 mg | DD0113 tumour weight, Mean ([2]; day 47 from inoculum): 666.3 mg | DD0113 tumour weight, individual mouse ([2]; day 47 from inoculum): 623.2 mg and 800.6 mg and 669.1 mg and 636.6 mg and 529.5 mg and 430.2 mg and 224.5 mg | DD0113 tumour weight, Mean ([2]; day 50 from inoculum): 716.0 mg | DD0113 tumour weight, individual mouse ([2]; day 50 from inoculum): 561.6 mg and 1194.0 mg and 680.6 mg | DD0113 tumour weight, Mean ([2]; day 54 from inoculum): 810.3 mg | DD0113 tumour weight, individual mouse ([2]; day 54 from inoculum): 776.7 mg and 1306.3 mg and 1175.7 mg and 807.3 mg | DD0113 tumour weight, Mean ([2]; day 58 from inoculum): 958.1 mg | DD0113 tumour weight, individual mouse ([2]; day 58 from inoculum): 819.5 mg and 1324.9 mg and 1508.4 mg and 1392.3 mg | DD0113 tumour weight, Mean ([2]; day 62 from inoculum): 1128.5 mg | DD0113 tumour weight, individual mouse ([2]; day 62 from inoculum): 955.7 mg and 1686.9 mg and 1777.9 mg and 1604.2 mg | DD0113 tumour weight, Mean ([2]; day 65 from inoculum): 1312.4 mg | DD0113 tumour weight, individual mouse ([2]; day 65 from inoculum): 960.1 mg and 1836.1 mg and 2144.7 mg and 1949.8 mg and 1415.2 mg | DD0113 tumour weight, Mean ([2]; day 69 from inoculum): 1491.3 mg | DD0113 tumour weight, individual mouse ([2]; day 69 from inoculum): 1238.0 mg and 2045.0 mg and 2383.0 mg and 2019.6 mg and 1526.2 mg | DD0113 tumour weight, Mean ([2]; day 72 from inoculum): 1712.4 mg | DD0113 tumour weight, individual mouse ([2]; day 72 from inoculum): 1440.5 mg and 2810.6 mg and 2245.9 mg and 1770.1 mg | DD0113 tumour weight, Mean ([2]; day 75 from inoculum): 1970.8 mg | DD0113 tumour weight, individual mouse ([2]; day 75 from inoculum): 1747.2 mg and 3155.1 mg and 2700.8 mg and 2034.9 mg
